Data as given in patent publication US20150045387A1, “Bi-Aromatic And Tri-Aromatic Compounds As NADPH Oxidase 2 (Nox2) Inhibitors” (The University of Surrey, priority 2011, published 2015).

Key:
[1] = tested on: Differentiate human neutrophils (HL-60 cells); assay: PMA-stimulated O2.- production by differentiated human neutrophils, lucigenin-chemiluminescence; type: cell-based; settings: HL-60 neutrophils, PMA 100 ng/ml for 5 min
Experimental: (§1) A) Differentiate human neutrophils (HL-60 cells, 5×10^4 cells/well) were stimulated with PMA (100 ng/ml) for 5 min in the presence or absence of LMH036 at the dose indicated. O2.^− production was measured by lucigenin-chemiluminescence. B) HPMEC were stimulated with TNFα (100 U/ml) for 45 min. Cells were immediately frozen in liquid nitrogen and homogenised. Cell homogenates (0.1 mg/well) were pre-incubated with LMH036 at the indicated dose for 5 min and measured for the O2.^− production in the presence of NADPH (100 μM) by lucigenin-chemiluminescence.
HL-60 is a human promyelocytic leukaemia cell line. […]
(§2) O2^− production by different cell types was measured using lucigenin (5 μM)-chemiluminescence. A microplate luminometer (LumiStar, BMG) was used, which allows the examination of 96 samples at the same time with kinetic reading facilities. […] Dark-adapted lucigenin (5 μM) was added into the well through an auto-dispenser located in the dark chamber just before reading. The light emission was recorded over a 60 minute period and expressed as arbitrary MLU measured by the illuminometer. Each experiment was performed in triplicate and the mean of 3 blank readings was subtracted from each corrected value for each reading. […]

[2] = tested on: HPMEC; assay: NADPH-dependent O2.- production by homogenates of TNFα-stimulated HPMEC, lucigenin-chemiluminescence; type: cell-based, human; settings: HPMEC stimulated with TNFα 100 U/ml 45 min, homogenates 0.1 mg/well, NADPH 100 μM
Experimental: as §1, §2
O2^− production was also studied using total cell homogenate (for the endothelial cells and the fibroblasts). […] Soluble protein concentration was determined using a kit from Bio-Rad Laboratories Ltd. (Hertfordshire, U.K.). […]

OCc1cc(-c2ncc(-c3cccc(O)c3O)o2)ccc1O [LMH036, 3-(2-(4-hydroxy-3-(hydroxymethyl)phenyl)oxazol-5-yl)benzene-1,2-diol]
O2.- production by human cells [1]: inhibitory effect
O2.- production by human cells [2]: inhibitory effect
